Results as given in patent US10179782B2, “Substituted sulfonamide compounds” (Genentech, Inc., priority 2016, dated 2019).
pIC50: −log10 of the molar value.

The compounds below were run against T1, human TRPA1 (Homo sapiens, UniProt O75762) (assay: TRPA1 FLIPR Tetra calcium influx assay in CHO cells (block of cinnamaldehyde-induced calcium influx)). Conditions: Table 1; CHO cells expressing TRPA1; agonist cinnamaldehyde 75 uM; with vs without substituent at R2/R3; read-out: hTRPA1 CHO Ca2+ AUC EVO (IC50).
T1 construct: expressed in transfected cells; host or cells: CHO cells
T1 sequence (O75762 whole entry): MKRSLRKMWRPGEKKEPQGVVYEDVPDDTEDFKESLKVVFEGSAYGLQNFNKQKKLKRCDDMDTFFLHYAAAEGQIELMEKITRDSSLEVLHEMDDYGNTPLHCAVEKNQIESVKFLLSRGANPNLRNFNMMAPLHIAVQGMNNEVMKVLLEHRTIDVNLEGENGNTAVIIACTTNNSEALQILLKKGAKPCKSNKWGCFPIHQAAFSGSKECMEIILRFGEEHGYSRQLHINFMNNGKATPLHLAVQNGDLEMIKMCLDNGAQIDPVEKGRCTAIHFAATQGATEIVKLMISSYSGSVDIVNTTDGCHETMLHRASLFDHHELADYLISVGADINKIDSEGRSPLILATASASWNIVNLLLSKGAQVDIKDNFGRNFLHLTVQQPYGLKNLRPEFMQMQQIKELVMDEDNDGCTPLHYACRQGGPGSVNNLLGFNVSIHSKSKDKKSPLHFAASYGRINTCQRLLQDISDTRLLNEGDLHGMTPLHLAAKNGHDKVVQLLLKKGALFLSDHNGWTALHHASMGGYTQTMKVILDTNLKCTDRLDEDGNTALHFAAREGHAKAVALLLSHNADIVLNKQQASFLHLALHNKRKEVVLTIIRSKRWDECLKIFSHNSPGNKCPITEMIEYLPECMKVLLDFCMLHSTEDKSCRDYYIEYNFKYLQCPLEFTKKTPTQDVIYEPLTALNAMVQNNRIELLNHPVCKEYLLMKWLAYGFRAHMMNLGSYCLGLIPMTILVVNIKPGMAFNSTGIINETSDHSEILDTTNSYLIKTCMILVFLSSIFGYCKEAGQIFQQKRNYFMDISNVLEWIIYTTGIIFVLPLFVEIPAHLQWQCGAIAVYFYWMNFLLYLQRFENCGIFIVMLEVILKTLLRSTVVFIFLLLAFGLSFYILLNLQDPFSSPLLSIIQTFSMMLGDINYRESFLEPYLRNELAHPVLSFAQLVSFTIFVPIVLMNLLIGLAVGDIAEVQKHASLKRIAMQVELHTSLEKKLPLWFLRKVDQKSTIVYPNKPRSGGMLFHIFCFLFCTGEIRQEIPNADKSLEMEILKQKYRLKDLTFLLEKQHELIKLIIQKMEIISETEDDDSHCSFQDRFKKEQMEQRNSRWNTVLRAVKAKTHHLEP
Assay type: cell-based
Procedure: IC50s (effective concentration) of compounds on the human and rat TRPA1 channels were determined using a FLIPR Tetra instrument. CHO cells expressing TRPA1 were plated into 384-well plates, incubated overnight at 37 C, and loaded with BD calcium indicator dye for 1 hr at 37° C. followed by 15 minutes at room temperature. The assay buffer was Hank's Balanced Salt Solution (HBSS) containing 20 mM HEPES (pH readjusted to 7.4) along with 0.02% BSA.
Following dye load and plate cool down, compounds were added to the cells using FLIPR Tetra. Plates were then incubated with compounds for 20 minutes at room temperature prior to adding agonist. Following this incubation, ˜EC80 concentration of cinnamaldehyde (75 uM for human TRPA1 and 45 uM for rat TRPA1) was added to active the channels and block of cinnamaldehyde induced calcium influx was measured.
IC50s were fit with a standard Hill function, keeping the Hill coefficient (n) fixed to 1.5. Fixing the Hill coefficient will generally reduce variability of the IC50 determination. The IC50s were individually examined to make sure the MIN and MAX points were set correctly prior to validation of the results.
A pIC50 of 6.89 was found for `O=C(NCc1ccnc(-c2cnc(C(F)(F)F)nc2)c1)[C@@H]1C[C@@H](F)CN1S(=O)(=O)c1ccc(F)cc1` [(2S,4R)-4-fluoro-1-(4-fluorophenyl)sulfonyl-N-[[2-[2-(trifluoromethyl)pyrimidin-5-yl]-4-pyridyl]methyl]pyrrolidine-2-carboxamide, reference compound] in this work. A pIC50 of 7.57 was found for `O=C(NCc1cc(-c2cnc(C(F)(F)F)nc2)ncc1F)[C@@H]1C[C@@H](F)CN1S(=O)(=O)c1ccc(F)cc1` [(2S,4R)-4-fluoro-1-(4-fluorophenyl)sulfonyl-N-[[5-fluoro-2-[2-(trifluoromethyl)pyrimidin-5-yl]-4-pyridyl]methyl]pyrrolidine-2-carboxamide, reference compound] in this work. A pIC50 of 6.60 was found for `O=C(NCc1cc(-c2cnc(C(F)(F)F)nc2)ncn1)[C@@H]1C[C@@H](F)CN1S(=O)(=O)c1ccc(F)cc1` [(2S,4R)-4-fluoro-1-(4-fluorophenyl)sulfonyl-N-[[6-[2-(trifluoromethyl)pyrimidin-5-yl]pyrimidin-4-yl]methyl]pyrrolidine-2-carboxamide, reference compound] in this work. A pIC50 of 7.37 was found for `O=C(NCc1cc(-c2cnc(C(F)(F)F)nc2)c(Cl)cn1)[C@@H]1C[C@@H](F)CN1S(=O)(=O)c1ccc(F)cc1` [(2S,4R)-N-[[5-chloro-4-[2-(trifluoromethyl)pyrimidin-5-yl]-2-pyridyl]methyl]-4-fluoro-1-(4-fluorophenyl)sulfonyl-pyrrolidine-2-carboxamide, reference compound] in this work.

Same assay, conditions: Table 2; CHO cells expressing TRPA1; agonist cinnamaldehyde 75 uM; 20 min compound incubation; Hill coefficient fixed to 1.5; read-out: hTRPA1 CHO Ca2+ AUC EVO (IC50)
A pIC50 of 7.84 was found for `O=C(NCc1cc(-c2cnc(C(F)(F)F)nc2)ncc1F)[C@@H]1[C@H]2C[C@H]2CN1S(=O)(=O)c1ccc(F)cc1` (single isomer, unassigned) [Example 68] in this work. A pIC50 of 7.95 was found for `O=C(NCc1ccc(F)c(-c2cnc(C(F)(F)F)nc2)c1)[C@H]1[C@@H]2C[C@@H]2CN1S(=O)(=O)c1ccc(F)cc1` (stereo in doubt) [Example 70, (1S,4R,5R)-3-(4-fluorophenyl)sulfonyl-N-[[4-fluoro-3-[2-(trifluoromethyl)pyrimidin-5-yl]phenyl]methyl]-3-azabicyclo[3.1.0]hexane-4-carboxamide] in this work. A pIC50 of 7.84 was found for `O=C(NCc1cc(-c2cnc(C(F)(F)F)nc2)ncc1F)[C@H]1[C@@H]2C[C@@H]2CN1S(=O)(=O)c1ccc(F)cc1` (stereo in doubt) [Example 79, (1S,4R,5R)-3-(4-fluorophenyl)sulfonyl-N-[[5-fluoro-2-[2-(trifluoromethyl)pyrimidin-5-yl]-4-pyridyl]methyl]-3-azabicyclo[3.1.0]hexane-4-carboxamide] in this work. A pIC50 of 7.70 was found for `C[C@H]1[C@H](F)C[C@@H](C(=O)NCc2cc(-c3cnc(C(F)(F)F)nc3)ncc2F)N1S(=O)(=O)c1cccc(Cl)c1` (stereo in doubt) [Example 91, (2S,4R,5S)-1-(3-chlorophenyl)sulfonyl-4-fluoro-N-[[5-fluoro-2-[2-(trifluoromethyl)pyrimidin-5-yl]-4-pyridyl]methyl]-5-methyl-pyrrolidine-2-carboxamide] in this work. A pIC50 of 8.06 was found for `C[C@H]1[C@H](F)C[C@@H](C(=O)NCc2cc(-c3cnc(C(F)(F)F)nc3)ncc2F)N1S(=O)(=O)c1ccc(Cl)c(Cl)c1` (stereo in doubt) [Example 92, (2S,4R,5S)-1-(3,4-dichlorophenyl)sulfonyl-4-fluoro-N-[[5-fluoro-2-[2-(trifluoromethyl)pyrimidin-5-yl]-4-pyridyl]methyl]-5-methyl-pyrrolidine-2-carboxamide] in this work. A pIC50 of 8.72 was found for `C[C@H]1[C@H](F)C[C@@H](C(=O)NCc2cc(-c3cnc(C(F)(F)F)nc3)ncc2F)N1S(=O)(=O)c1ccc(F)cc1` [Example 1, (2S,4R,5S)-4-fluoro-N-([5-fluoro-2-[2-(trifluoromethyl)pyrimidin-5-yl]pyridin-4-yl]methyl)-1-[(4-fluorobenzene)sulfonyl]-5-methylpyrrolidine-2-carboxamide] in this work. A pIC50 of 8.13 was found for `C[C@H]1[C@H](C#N)C[C@@H](C(=O)NCc2cc(-c3cnc(C(F)(F)F)nc3)ccc2F)N1S(=O)(=O)c1ccc(F)cc1` [Example 2, (2S,4R,5S)-4-cyano-N-([2-fluoro-5-[2-(trifluoromethyl)pyrimidin-5-yl]phenyl]methyl)-1-[(4-fluorobenzene)sulfonyl]-5-methylpyrrolidine-2-carboxamide] in this work. A pIC50 of 8.95 was found for `C[C@H]1CC[C@@H](C(=O)NCc2cc(Cl)nc(-c3cnc(C(F)(F)F)nc3)c2)N1S(=O)(=O)c1ccc(F)cc1` [Example 3, (2S,5S)—N-([2-chloro-6-[2-(trifluoromethyl)pyrimidin-5-yl]pyridin-4-yl]methyl)-1-[(4-fluorobenzene)sulfonyl]-5-methylpyrrolidine-2-carboxamide] in this work. A pIC50 of 7.15 was found for `O=C(NCc1cc(-c2cnc(C(F)(F)F)nc2)ncn1)[C@@H]1CCC2(CC2)N1S(=O)(=O)c1ccc(F)cc1` [Example 4, (5S)-4-[(4-fluorobenzene)sulfonyl]-N-([6-[2-(trifluoromethyl)pyrimidin-5-yl]pyrimidin-4-yl]methyl)-4-azaspiro[2.4]heptane-5-carboxamide] in this work. A pIC50 of 8.42 was found for `C[C@H]1[C@H](F)C[C@@H](C(=O)NCc2ccc(F)c(-c3cnc(C(F)(F)F)nc3)c2)N1S(=O)(=O)c1ccc(F)cc1` [Example 5, (2S,4R,5S)-4-fluoro-1-(4-fluorophenyl)sulfonyl-N-[[4-fluoro-3-[2-(trifluoromethyl)pyrimidin-5-yl]phenyl]methyl]-5-methyl-pyrrolidine-2-carboxamide] in this work. A pIC50 of 8.02 was found for `COc1nn(-c2cnc(C(F)(F)F)nc2)cc1CNC(=O)[C@@H]1C[C@@H](F)[C@H](C)N1S(=O)(=O)c1ccc(F)cc1` [Example 6, (2S,4R,5S)-4-fluoro-1-(4-fluorophenyl)sulfonyl-N-[[3-methoxy-1-[2-(trifluoromethyl)pyrimidin-5-yl]pyrazol-4-yl]methyl]-5-methyl-pyrrolidine-2-carboxamide] in this work. A pIC50 of 7.58 was found for `C[C@H]1[C@H](F)C[C@@H](C(=O)NCc2cn(-c3cnc(C(F)(F)F)nc3)nc2C(F)F)N1S(=O)(=O)c1ccc(F)cc1` [Example 7, (2S,4R,5S)-N-[[3-(difluoromethyl)-1-[2-(trifluoromethyl)pyrimidin-5-yl]pyrazol-4-yl]methyl]-4-fluoro-1-(4-fluorophenyl)sulfonyl-5-methyl-pyrrolidine-2-carboxamide] in this work. A pIC50 of 7.76 was found for `C[C@H]1[C@H](F)C[C@@H](C(=O)NCc2cc(-c3cnc(C(F)(F)F)nc3)ncn2)N1S(=O)(=O)c1ccc(F)cc1` [Example 8, (2S,4R,5S)-4-fluoro-1-(4-fluorophenyl)sulfonyl-5-methyl-N-[[6-[2-(trifluoromethyl)pyrimidin-5-yl]pyrimidin-4-yl]methyl]pyrrolidine-2-carboxamide] in this work. A pIC50 of 7.37 was found for `O=C(NCc1cc(-c2cnc(C(F)(F)F)nc2)ncn1)[C@@H]1CC[C@H](C(F)(F)F)N1S(=O)(=O)c1ccc(F)cc1` [Example 9, (2S,5R)-1-(4-fluorophenyl)sulfonyl-5-(trifluoromethyl)-N-[[6-[2-(trifluoromethyl)pyrimidin-5-yl]pyrimidin-4-yl]methyl]pyrrolidine-2-carboxamide] in this work. A pIC50 of 8.65 was found for `C[C@H]1[C@H](F)C[C@@H](C(=O)NCc2cc(Cl)nc(-c3cnc(C(F)(F)F)nc3)c2)N1S(=O)(=O)c1ccc(F)cc1` [Example 10, (2S,4R,5S)-N-[[2-chloro-6-[2-(trifluoromethyl)pyrimidin-5-yl]-4-pyridyl]methyl]-4-fluoro-1-(4-fluorophenyl)sulfonyl-5-methyl-pyrrolidine-2-carboxamide] in this work. A pIC50 of 8.50 was found for `C[C@H]1CC[C@@H](C(=O)NCc2cc(-c3cnc(C(F)(F)F)nc3)nc(-c3cnc(C(F)(F)F)nc3)c2)N1S(=O)(=O)c1ccc(F)cc1` [Example 11, (2S,5S)-N-[[2,6-bis[2-(trifluoromethyl)pyrimidin-5-yl]-4-pyridyl]methyl]-1-(4-fluorophenyl)sulfonyl-5-methyl-pyrrolidine-2-carboxamide] in this work. A pIC50 of 8.53 was found for `C[C@H]1[C@H](F)C[C@@H](C(=O)NCc2cc(-c3cnc(C(F)(F)F)nc3)ncc2Cl)N1S(=O)(=O)c1ccc(F)cc1` [Example 12, (2S,4R,5S)-N-[[5-chloro-2-[2-(trifluoromethyl)pyrimidin-5-yl]-4-pyridyl]methyl]-4-fluoro-1-(4-fluorophenyl)sulfonyl-5-methyl-pyrrolidine-2-carboxamide] in this work. A pIC50 of 7.64 was found for `O=C(NCc1ccnc(-c2cnc(C(F)(F)F)nc2)c1)[C@@H]1C[C@@H]2C[C@@H]2N1S(=O)(=O)c1ccc(F)cc1` [Example 13, (1S,3S,5S)-2-(4-fluorophenyl)sulfonyl-N-[[2-[2-(trifluoromethyl)pyrimidin-5-yl]-4-pyridyl]methyl]-2-azabicyclo[3.1.0]hexane-3-carboxamide] in this work. A pIC50 of 8.67 was found for `C[C@H]1[C@H](F)C[C@@H](C(=O)NCc2cc(-c3cnc(C(F)(F)F)nc3)ccc2F)N1S(=O)(=O)c1ccc(F)cc1` [Example 14, (2S,4R,5S)-4-fluoro-1-(4-fluorophenyl)sulfonyl-N-[[2-fluoro-5-[2-(trifluoromethyl)pyrimidin-5-yl]phenyl]methyl]-5-methyl-pyrrolidine-2-carboxamide] in this work. A pIC50 of 9.22 was found for `O=C(NCc1cc(-c2cnc(C(F)(F)F)nc2)ncc1F)[C@@H]1C[C@@H]2C[C@@H]2N1S(=O)(=O)c1ccc(F)cc1` [Example 15, (1S,3S,5S)-2-(4-fluorophenyl)sulfonyl-N-[[5-fluoro-2-[2-(trifluoromethyl)pyrimidin-5-yl]-4-pyridyl]methyl]-2-azabicyclo[3.1.0]hexane-3-carboxamide] in this work.
